The text below walks through data of ChEMBL document CHEMBL4339202, “Benzothiophene derivatives as phosphodiesterase 10A (PDE10A) inhibitors: Hit-to-lead studies” (Bioorg Med Chem Lett, 2019).

The structures appear in SMILES notation. pIC50: −log10 of the molar value. A value given as a limit tells only on which side of the number the result lay.

One may read the pIC50 as the IC50 on a negative log10 scale, so that one unit is a factor of ten. In general, inhibition refers to the share of the control response that was lost under treatment. One may read the IC50 as the point on the concentration scale where inhibition reaches its midpoint.

Series [1] has as its target cAMP and cAMP-inhibited cGMP 3',5'-cyclic phosphodiesterase 10A (Homo sapiens, UniProt Q9Y233). Nature of the series: Inhibition of human MOLT4 cell-derived PDE10A using [3H]cAMP as substrate measured after 2 hrs in presence of rolipram/milrinone by topcount method.
A further series addresses CYP3A4 (Homo sapiens, UniProt P08684). Nature of the series: Inhibition of CYP3A4 (unknown origin) at 10 uM relative to control. The class given is ADME.
Another series deals with hERG (KCNH2) (Homo sapiens, UniProt Q12809). Nature of the series: Inhibition of human ERG at 10 uM relative to control.
In another series the target is CYP2D6 (Homo sapiens, UniProt P10635). Nature of the series: Inhibition of CYP2D6 (unknown origin) at 10 uM relative to control. The class given is ADME.
Series [2] is filed under the species Mus musculus. Nature of the series: Inhibition of Balb/c mouse lung PDE5 at 30 ug/ml using [3H]cGMP as substrate measured after 2 hrs by topcount method relative to control.
The species entered for series [3] is Mus musculus. Nature of the series: Inhibition of Balb/c mouse liver PDE4 at 30 ug/ml using [3H]cAMP as substrate measured after 2 hrs by topcount method relative to control.
Series [4] is filed under the species Mus musculus. Nature of the series: Inhibition of Balb/c mouse liver PDE1 at 30 ug/ml using [3H]cAMP as substrate measured after 2 hrs in presence of calmodulin by topcount method relative to control.
The species entered for series [5] is Mus musculus. Nature of the series: Inhibition of Balb/c mouse liver PDE2 at 30 ug/ml using [3H]cAMP as substrate measured after 2 hrs in presence of cGMP by topcount method relative to control.
For series [6], the target named is T1, Phosphodiesterase 7 (Homo sapiens, UniProt Q13946+Q9NP56). Nature of the series: Inhibition of human MOLT4 cell-derived PDE7 at 30 ug/ml using [3H]cAMP as substrate measured after 2 hrs in presence of rolipram/milrinone by topcount method relative to control. The series is classed as protein assay.
A short description of series [7]: Selectivity ratio of IC50 for Balb/c mouse liver PDE1 to IC50 for human MOLT4 cell-derived PDE10A.
Another series is filed under the species Homo sapiens. Nature of the series: Selectivity ratio of IC50 for human MOLT4 cell-derived PDE7 to IC50 for human MOLT4 cell-derived PDE10A.
The nature of series [8]: Selectivity ratio of IC50 for Balb/c mouse lung PDE5 to IC50 for human MOLT4 cell-derived PDE10A.
Series [9] can be described thus: Inhibition of Balb/c mouse lung PDE5 using [3H]cGMP as substrate measured after 2 hrs by topcount method.
Series [10] in a line: Selectivity ratio of IC50 for Balb/c mouse liver PDE4 to IC50 for human MOLT4 cell-derived PDE10A.
Series [11] can be described thus: Inhibition of Balb/c mouse liver PDE1 using [3H]cAMP as substrate measured after 2 hrs in presence of calmodulin by topcount method.
For series [12], the target named is T1, Phosphodiesterase 7. Nature of the series: Inhibition of human MOLT4 cell-derived PDE7 using [3H]cAMP as substrate measured after 2 hrs in presence of rolipram/milrinone by topcount method. The class given is protein assay.
Series [13] in a line: Inhibition of Balb/c mouse liver PDE2 using [3H]cAMP as substrate measured after 2 hrs in presence of cGMP by topcount method.
Series [14] in a line: Inhibition of Balb/c mouse liver PDE4 using [3H]cAMP as substrate measured after 2 hrs by topcount method.
Series [15] is described as follows: Selectivity ratio of IC50 for Balb/c mouse liver PDE2 to IC50 for human MOLT4 cell-derived PDE10A.

Sequence of cAMP and cAMP-inhibited cGMP 3',5'-cyclic phosphodiesterase 10A (Q9Y233 whole entry): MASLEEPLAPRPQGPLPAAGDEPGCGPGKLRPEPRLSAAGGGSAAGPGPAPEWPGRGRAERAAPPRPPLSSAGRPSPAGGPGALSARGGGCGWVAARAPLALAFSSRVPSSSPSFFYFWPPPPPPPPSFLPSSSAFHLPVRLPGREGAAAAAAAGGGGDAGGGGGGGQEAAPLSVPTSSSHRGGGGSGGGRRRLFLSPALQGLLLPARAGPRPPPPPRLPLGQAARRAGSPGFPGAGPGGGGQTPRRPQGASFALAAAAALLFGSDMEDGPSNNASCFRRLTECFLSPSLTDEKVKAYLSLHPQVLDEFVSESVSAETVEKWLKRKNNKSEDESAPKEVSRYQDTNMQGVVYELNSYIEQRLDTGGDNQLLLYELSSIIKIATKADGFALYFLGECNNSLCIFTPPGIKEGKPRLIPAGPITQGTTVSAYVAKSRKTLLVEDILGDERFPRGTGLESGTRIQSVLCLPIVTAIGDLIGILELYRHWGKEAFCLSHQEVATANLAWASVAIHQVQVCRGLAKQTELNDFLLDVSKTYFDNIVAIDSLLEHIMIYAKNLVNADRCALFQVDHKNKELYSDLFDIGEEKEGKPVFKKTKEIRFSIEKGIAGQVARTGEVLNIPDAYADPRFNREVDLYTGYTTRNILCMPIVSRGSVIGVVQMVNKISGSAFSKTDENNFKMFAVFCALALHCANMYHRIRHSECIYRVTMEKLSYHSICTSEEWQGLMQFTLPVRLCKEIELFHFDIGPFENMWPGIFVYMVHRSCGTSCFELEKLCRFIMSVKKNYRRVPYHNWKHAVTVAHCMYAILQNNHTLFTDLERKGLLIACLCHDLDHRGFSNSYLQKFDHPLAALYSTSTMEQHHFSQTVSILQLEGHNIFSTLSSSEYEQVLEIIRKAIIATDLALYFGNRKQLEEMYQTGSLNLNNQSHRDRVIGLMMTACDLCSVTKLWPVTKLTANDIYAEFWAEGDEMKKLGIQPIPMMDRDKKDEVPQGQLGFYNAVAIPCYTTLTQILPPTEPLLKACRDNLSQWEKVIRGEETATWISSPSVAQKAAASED
Sequence of CYP2D6 (P10635 whole entry): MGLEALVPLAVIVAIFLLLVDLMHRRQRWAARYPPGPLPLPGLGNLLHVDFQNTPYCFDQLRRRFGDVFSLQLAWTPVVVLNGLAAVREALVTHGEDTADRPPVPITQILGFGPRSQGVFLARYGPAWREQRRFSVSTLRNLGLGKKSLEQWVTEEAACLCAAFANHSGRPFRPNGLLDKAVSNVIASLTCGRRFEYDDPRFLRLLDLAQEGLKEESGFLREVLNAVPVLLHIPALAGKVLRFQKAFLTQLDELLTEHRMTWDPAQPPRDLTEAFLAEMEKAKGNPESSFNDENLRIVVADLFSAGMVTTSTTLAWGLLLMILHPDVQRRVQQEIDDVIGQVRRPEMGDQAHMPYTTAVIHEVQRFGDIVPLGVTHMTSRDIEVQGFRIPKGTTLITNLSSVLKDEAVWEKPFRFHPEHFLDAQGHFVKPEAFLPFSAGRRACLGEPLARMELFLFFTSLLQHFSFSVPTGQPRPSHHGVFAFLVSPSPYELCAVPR
Sequence of CYP3A4 (P08684 whole entry): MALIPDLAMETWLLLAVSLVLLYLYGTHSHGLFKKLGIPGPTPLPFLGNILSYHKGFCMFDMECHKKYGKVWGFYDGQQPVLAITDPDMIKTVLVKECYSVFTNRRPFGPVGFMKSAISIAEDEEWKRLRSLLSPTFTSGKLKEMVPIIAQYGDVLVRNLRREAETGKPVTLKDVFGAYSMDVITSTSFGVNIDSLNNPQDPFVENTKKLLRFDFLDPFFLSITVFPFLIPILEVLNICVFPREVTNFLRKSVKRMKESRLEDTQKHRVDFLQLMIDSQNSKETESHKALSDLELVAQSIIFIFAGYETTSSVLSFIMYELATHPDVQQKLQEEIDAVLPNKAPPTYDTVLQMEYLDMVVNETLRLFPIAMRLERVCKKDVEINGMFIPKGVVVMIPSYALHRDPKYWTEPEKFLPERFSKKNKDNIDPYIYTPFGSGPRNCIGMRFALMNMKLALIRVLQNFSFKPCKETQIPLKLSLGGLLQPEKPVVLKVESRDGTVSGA
T1 sequence (Q13946 whole entry, looked up): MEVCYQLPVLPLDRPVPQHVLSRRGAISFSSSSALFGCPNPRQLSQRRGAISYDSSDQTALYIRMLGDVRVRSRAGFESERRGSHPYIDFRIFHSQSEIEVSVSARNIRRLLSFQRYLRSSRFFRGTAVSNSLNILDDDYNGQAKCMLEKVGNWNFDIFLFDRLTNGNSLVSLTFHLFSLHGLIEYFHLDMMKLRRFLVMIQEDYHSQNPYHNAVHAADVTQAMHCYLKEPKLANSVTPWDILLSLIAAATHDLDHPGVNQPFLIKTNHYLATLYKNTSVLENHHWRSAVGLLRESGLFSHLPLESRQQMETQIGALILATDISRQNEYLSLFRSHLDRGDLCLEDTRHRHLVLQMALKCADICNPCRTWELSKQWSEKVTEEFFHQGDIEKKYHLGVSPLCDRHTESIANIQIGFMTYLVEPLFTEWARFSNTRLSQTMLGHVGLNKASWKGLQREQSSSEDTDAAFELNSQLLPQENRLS
T1 sequence (Q9NP56 whole entry, looked up): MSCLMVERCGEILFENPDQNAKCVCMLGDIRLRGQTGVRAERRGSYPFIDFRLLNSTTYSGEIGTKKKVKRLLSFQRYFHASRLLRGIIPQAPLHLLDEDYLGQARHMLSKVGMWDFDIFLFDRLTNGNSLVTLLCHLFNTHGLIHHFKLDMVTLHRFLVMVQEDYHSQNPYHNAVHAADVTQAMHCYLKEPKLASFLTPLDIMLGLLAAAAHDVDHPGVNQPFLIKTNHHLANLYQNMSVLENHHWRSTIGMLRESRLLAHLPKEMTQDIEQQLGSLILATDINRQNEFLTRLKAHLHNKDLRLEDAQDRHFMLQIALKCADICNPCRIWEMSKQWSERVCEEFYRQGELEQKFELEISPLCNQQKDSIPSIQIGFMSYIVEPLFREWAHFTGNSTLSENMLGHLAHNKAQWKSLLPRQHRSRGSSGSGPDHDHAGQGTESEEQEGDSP
Sequence of hERG (KCNH2) (Q12809 whole entry): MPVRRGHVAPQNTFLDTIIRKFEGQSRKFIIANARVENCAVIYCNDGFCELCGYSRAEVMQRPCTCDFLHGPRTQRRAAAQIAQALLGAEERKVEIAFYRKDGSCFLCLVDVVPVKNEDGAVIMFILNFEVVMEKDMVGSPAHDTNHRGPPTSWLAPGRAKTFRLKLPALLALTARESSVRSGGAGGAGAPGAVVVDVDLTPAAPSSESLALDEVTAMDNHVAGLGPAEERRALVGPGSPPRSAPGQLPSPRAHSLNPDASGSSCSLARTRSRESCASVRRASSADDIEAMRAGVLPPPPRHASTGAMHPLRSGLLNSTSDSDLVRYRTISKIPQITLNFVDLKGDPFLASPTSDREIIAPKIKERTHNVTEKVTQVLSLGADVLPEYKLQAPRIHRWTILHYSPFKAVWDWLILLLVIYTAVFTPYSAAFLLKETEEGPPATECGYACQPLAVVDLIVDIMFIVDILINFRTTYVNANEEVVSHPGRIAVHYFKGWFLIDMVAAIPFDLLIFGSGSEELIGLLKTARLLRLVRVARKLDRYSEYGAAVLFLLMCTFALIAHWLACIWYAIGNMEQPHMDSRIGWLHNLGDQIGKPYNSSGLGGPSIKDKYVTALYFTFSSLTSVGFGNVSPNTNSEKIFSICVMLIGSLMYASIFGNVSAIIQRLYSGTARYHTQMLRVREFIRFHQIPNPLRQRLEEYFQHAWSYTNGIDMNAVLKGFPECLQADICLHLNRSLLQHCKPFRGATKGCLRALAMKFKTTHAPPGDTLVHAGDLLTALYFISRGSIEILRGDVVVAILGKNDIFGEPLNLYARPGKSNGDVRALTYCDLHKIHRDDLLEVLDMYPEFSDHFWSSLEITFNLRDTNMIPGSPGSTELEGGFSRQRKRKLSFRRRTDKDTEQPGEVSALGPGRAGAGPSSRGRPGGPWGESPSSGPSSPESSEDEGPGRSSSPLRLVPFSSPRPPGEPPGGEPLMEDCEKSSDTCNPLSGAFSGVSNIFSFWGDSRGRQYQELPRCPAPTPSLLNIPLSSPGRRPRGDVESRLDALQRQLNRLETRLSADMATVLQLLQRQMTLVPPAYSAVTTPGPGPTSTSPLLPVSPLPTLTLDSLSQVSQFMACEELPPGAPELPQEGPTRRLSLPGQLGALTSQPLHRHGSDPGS

For the compound `Cc1c(C(=O)Nc2ccc3ccccc3n2)sc2c(I)cccc12`, the negative logarithm of the IC50 (pIC50) in series [1] is 6.70.

Regarding `CC(=O)c1ccc(C(C)=O)c2sc(C(=O)Nc3cc(C(C)(C)O)c4ccccc4n3)cc12`, in series [1], the pIC50 is 7.89.

For the compound `CCc1c(C(=O)Nc2ccc3ccccc3n2)sc2c(-c3ccncc3)cccc12`, in series [1], the pIC50 was 8.28.

As for `Cc1c(C(=O)Nc2ccc3ccccc3n2)sc2c(-c3ccncc3)cccc12`, the inhibition at 10 µM came to 1% on CYP3A4, 36% at hERG (KCNH2) and 45% against CYP2D6. In addition, the negative logarithm of the IC50 (pIC50) in [1] was 8.33.

Consider `O=C(Nc1ccc2ccccc2n1)c1cc2cccc(-c3ccncc3)c2s1`, for which the pIC50 in series [1] was 7.33.

As to `O=C(Nc1cc2cccccc-2n1)/C(=C/c1ccccc1)c1ccccc1`, the inhibition in the series filed under Mus musculus [2] was 25 to 50%; in the series filed under Mus musculus [3] it was 25 to 50%; in the series filed under Mus musculus [4], 25 to 50%; in the series listed under Mus musculus [5] it was 25 to 50%; at Phosphodiesterase 7 [6], less than 25%. Besides, the negative-log IC50 (pIC50) in series [1] was 6.29.

Take `Cc1c(C(=O)Nc2ccc3ccccc3n2)sc2c(-c3ccccn3)cccc12`: in series [1], the negative logarithm of the IC50 (pIC50) is 7.21.

For `Cc1c(C(=O)Nc2ccc3ccccc3n2)sc2c(-c3cccnc3)cccc12`, the negative logarithm of the IC50 (pIC50) in [1] was 6.92.

For the compound `Cc1c(C(=O)Nc2ccc3ccccc3n2)sc2c(-c3ccoc3)cccc12`, the negative-log IC50 (pIC50) in series [1] is 6.49.

`Cc1c(C(=O)Nc2ccc3ccccc3n2)sc2c(C(N)=O)cccc12`: the negative-log IC50 (pIC50) in series [1] is 7.64.

With `Cc1c(C(=O)Nc2ccc3ccccc3n2)sc2c(C(=O)N(C)C)cccc12`, the negative logarithm of the IC50 (pIC50) in series [1] is 7.36.

Regarding `O=C(Nc1ccc2ccccc2n1)/C(=C/c1ccccc1)c1ccccc1`, the inhibition in the series listed under Mus musculus [2], in the series filed under Mus musculus [3], in the series filed under Mus musculus [4], in the series filed under Mus musculus [5] and at Phosphodiesterase 7 [6] was less than 25% throughout. Besides, the negative logarithm of the IC50 (pIC50) in [1] was 6.36.

As to `Cc1c(C(=O)Nc2ccc3ccccc3n2)sc2c(C#N)cccc12`, the pIC50 in [1] was 6.96.

Regarding `CC(=O)c1cccc2c(C)c(C(=O)Nc3ccc4ccccc4n3)sc12`, the inhibition at 10 µM is 0% on CYP3A4, 10% against hERG (KCNH2) and 0% at CYP2D6. The Ratio IC50 (in series [7]; in the series filed under Homo sapiens; in series [8]; in series [10]; in series [15]) was more than 1300 throughout. Besides, the pIC50 in [1] was 8.12; in series [9], less than 5.00; in [11], less than 5.00; in [13], less than 5.00; in [14] it was less than 5.00. In addition, the IC50 on Phosphodiesterase 7 [12] was more than 10 µM.

In the case of `CNC(=O)c1cccc2c(C)c(C(=O)Nc3ccc4ccccc4n3)sc12`, the pIC50 in series [1] was 7.64.
